Assay results: paper PMC5443537, “The human asparaginase enzyme (ASPG) inhibits growth in leukemic cells” (PLoS ONE, 2017)

Legend:
[1] = biological target: T1, GST-ASPG (human ASPG, 60 kDa Lysophospholipase) (Homo sapiens, UniProt Q86U10); experiment: Nessler ammonia assay, steady-state inhibition kinetics; format: biochemical
T1 construct: full-length cDNA in pGEX-4T3, N-terminal GST tag kept, E. coli BL21, glutathione Sepharose
T1 sequence (Q86U10 1-573): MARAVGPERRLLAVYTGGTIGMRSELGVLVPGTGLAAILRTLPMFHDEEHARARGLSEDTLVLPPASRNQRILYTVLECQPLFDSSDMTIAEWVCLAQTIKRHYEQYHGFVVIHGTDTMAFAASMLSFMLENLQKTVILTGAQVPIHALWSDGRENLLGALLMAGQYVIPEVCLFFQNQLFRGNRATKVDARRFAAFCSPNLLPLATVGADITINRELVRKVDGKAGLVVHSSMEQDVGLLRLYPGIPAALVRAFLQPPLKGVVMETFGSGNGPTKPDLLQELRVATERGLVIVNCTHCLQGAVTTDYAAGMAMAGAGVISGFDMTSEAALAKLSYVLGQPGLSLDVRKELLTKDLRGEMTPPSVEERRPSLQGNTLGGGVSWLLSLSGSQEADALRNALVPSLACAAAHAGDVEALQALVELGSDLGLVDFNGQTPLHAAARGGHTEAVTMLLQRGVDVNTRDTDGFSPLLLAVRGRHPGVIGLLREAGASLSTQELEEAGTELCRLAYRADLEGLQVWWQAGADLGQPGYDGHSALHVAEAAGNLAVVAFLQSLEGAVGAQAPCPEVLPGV

[2] = biological target: T1, GST-ASPG (human ASPG, 60 kDa Lysophospholipase); experiment: PAF acetylhydrolase assay kit (2-thio PAF, DTNB, […] nm); format: biochemical; conditions: 200 µM 2-thio-PAF, Tris/HCl pH 7.2, 10 min pre-incubation
[3] = substrate: NC(=O)C[C@H](N)C(=O)O; experiment: Nessler ammonia assay, Hill fit; format: biochemical, Homo sapiens; conditions: Tris/HCl pH 8.6, 37 °C, 30 min, 3-39 mM substrate, sigmoidal kinetics, Hill slope 6.9

| Molecule | Ki [1] [mM] | residual PAF-AH activity at 40 and 200 mM [2] | K0.5 [3] [mM] |
| --- | --- | --- | --- |
| NC(=O)C[C@@H](N)C(=O)O [D-asparagine] | 71 | PAF-AH activity of GST-ASPG was also significantly inhibited by D-asparagine | – |
| GST-ASPG (human ASPG, 60 kDa Lysophospholipase) (Homo sapiens) (protein, full-length cDNA in pGEX-4T3, N-terminal GST tag kept, E. coli BL21, glutathione Sepharose) MARAVGPERRLLAVYTGGTIGMRSELGVLVPGTGLAAILRTLPMFHDEEHARARGLSEDTLVLPPASRNQRILYTVLECQPLFDSSDMTIAEWVCLAQTIKRHYEQYHGFVVIHGTDTMAFAASMLSFMLENLQKTVILTGAQVPIHALWSDGRENLLGALLMAGQYVIPEVCLFFQNQLFRGNRATKVDARRFAAFCSPNLLPLATVGADITINRELVRKVDGKAGLVVHSSMEQDVGLLRLYPGIPAALVRAFLQPPLKGVVMETFGSGNGPTKPDLLQELRVATERGLVIVNCTHCLQGAVTTDYAAGMAMAGAGVISGFDMTSEAALAKLSYVLGQPGLSLDVRKELLTKDLRGEMTPPSVEERRPSLQGNTLGGGVSWLLSLSGSQEADALRNALVPSLACAAAHAGDVEALQALVELGSDLGLVDFNGQTPLHAAARGGHTEAVTMLLQRGVDVNTRDTDGFSPLLLAVRGRHPGVIGLLREAGASLSTQELEEAGTELCRLAYRADLEGLQVWWQAGADLGQPGYDGHSALHVAEAAGNLAVVAFLQSLEGAVGAQAPCPEVLPGV | – | – | 13 |
